Like-named read-outs stand apart in the source and are kept apart here.
What was measured:
[1] = tested on: B. fragilis; assay: Agar dilution MIC, anaerobes (Example 5); type: cell-based; conditions: Bacteroides fragilis, ATCC25285; B. fragilis MMX 123 (ATCC 25285); QC; read-out: MIC
[2] = tested on: C. difficile; assay: Agar dilution MIC, anaerobes (Example 5); type: cell-based, Clostridium difficile; conditions: Clostridioides difficile, read-out: MIC
[3] = tested on: C. difficile; conditions: C. difficile MMX 4381 (ATCC 700057); cited from earlier work
[4] = tested on: E. coli; assay: Broth microdilution MIC (Example 5); type: cell-based, Escherichia coli
Procedure: (§1) Test and Comparator Agents: The test agents were stored at room temperature until assayed. […] The stock solutions were allowed to stand for at least 1 hr prior to use to auto-sterilize.
(§2) TestMedia: Test media were prepared and stored in accordance with guidelines from CLSI (4, 6, 7).
(§3) Broth Microdilution MC Testing (Aerobic Bacteria and Yeast): The broth microdilution assay method employed for the susceptibility testing of aerobic bacteria (excluding N. gonorrhoeae which was evaluated by agar dilution) and yeast essentially followed the procedures described by CLSI (3, 4, 7, 8) and employed automated liquid handlers to conduct serial dilutions and liquid transfers. […] These would become the ‘mother plates’ from which ‘daughter’ or test plates would be prepared. The drugs (300 μL at 40× the desired top concentration in the test plates) were dispensed into the appropriate well in Column 1 of the mother plates. The Biomek 2000 was used to make serial two-fold dilutions through Column 11 in the “mother plate”. The wells of Column 12 contained no drug and ultimately served as the organism growth control wells.
(§4) The daughter plates were prepared using the Biomek FX which transferred 5 μL of drug solution from each well of a mother plate to the corresponding well of the correct daughter plate in a single step.
(§5) A standardized inoculum of each organism was prepared per CLSI methods (3, 7). Isolated colonies of each test isolate were picked from the primary plate and a suspension was prepared to equal a 0.5 McFarland turbidity standard. Standardized suspensions were then diluted […] (1:100 for yeast, 1:20 for bacteria). After dilution, the inoculum suspensions were then transferred to compartments of sterile reservoirs divided by length (Beckman Coulter), and the Biomek 2000 was used to inoculate all plates. Daughter plates were placed on the Biomek 2000 in reverse orientation so that plates were inoculated from low to high drug concentration.
(§6) The Biomek 2000 delivered 10 μL of standardized inoculum into each well of the appropriate daughter plate for an additional 1:20 dilution.
(§7) Plates were stacked 4 high, covered with a lid on the top plate, placed into plastic bags, and incubated at 35° C. for approximately 24-48 hr for all yeast isolates and 16-24 hr for aerobic bacteria. Plates were viewed from the bottom using a plate viewer. […] MIC endpoints for the test agents and control compounds were read per CLSI criteria (3, 7).

[5] = tested on: K. pneumoniae; assay: Broth microdilution MIC (Example 5); type: cell-based, Klebsiella pneumoniae
Procedure: as §1, §2, §3, §4, §5, §6, §7

[6] = tested on: E. cloacae; assay: Broth microdilution MIC (Example 5); type: cell-based, Enterobacter cloacae; conditions: E. cloacae MMX 5981 (ATCC BAA-2468); NDM-1
Procedure: as §1, §2
Broth Microdilution MC Testing (Aerobic Bacteria and Yeast): The broth microdilution assay method employed for the susceptibility testing of aerobic bacteria (excluding N. gonorrhoeae which was evaluated by agar dilution) and yeast essentially followed the procedures described by CLSI (3, 4, 7, 8) and employed automated liquid handlers to conduct serial dilutions and liquid transfers. […] These would become the ‘mother plates’ from which ‘daughter’ or test plates would be prepared. The drugs (300 μL at 40× the desired top concentration in the test plates) were dispensed into the appropriate well in Column 1 of the mother plates. The Biomek 2000 was used to make serial two-fold dilutions through Column 11 in the “mother plate”. […]
Plates were stacked 4 high, covered with a lid on the top plate, placed into plastic bags, and incubated at 35° C. for approximately 24-48 hr for all yeast isolates and 16-24 hr for aerobic bacteria. […] MIC endpoints for the test agents and control compounds were read per CLSI criteria (3, 7).

[7] = tested on: P. aeruginosa; assay: Broth microdilution MIC (Example 5); type: cell-based, Pseudomonas aeruginosa
Procedure: as §1, §2, §3, §4, §5, §6, §7

[8] = tested on: A. baumannii; assay: Broth microdilution MIC (Example 5); type: cell-based, Acinetobacter baumannii
Procedure: as §1, §2, §3, §4, §5, §6, §7

[9] = tested on: S. aureus; assay: Broth microdilution MIC (Example 5); type: cell-based, Staphylococcus aureus
Procedure: as §1, §2, §3, §4, §5, §6, §7

[10] = tested on: E. faecalis; assay: Broth microdilution MIC (Example 5); type: cell-based, Enterococcus faecalis; conditions: VRE
Procedure: as §1, §2, §3, §4, §5, §6, §7

[11] = tested on: E. faecium; assay: Broth microdilution MIC (Example 5); type: cell-based; conditions: VRE vanA
Method in brief: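 Colonies were suspended to a 0.5 McFarland standard, diluted in test media, and dispensed into plates holding two-fold serial drug dilutions.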

[12] = tested on: E. coli; conditions: E. coli MMX 102 (ATCC 25922); cited from earlier work
[13] = tested on: P. aeruginosa; conditions: P. aeruginosa MMX 103 (ATCC 27853); cited from earlier work
[14] = tested on: C. albicans; assay: Broth microdilution MIC, yeast (Example 5); type: cell-based; conditions: Sensitive
Procedure: (§8) Test and Comparator Agents: The test agents were stored at room temperature until assayed. All test agents were suspended and diluted in 100% dimethylsulfoxide (DMSO), and were ultimately tested at a final concentration of 0.06-64 μg/mL. The stock solutions were allowed to stand for at least 1 hr prior to use to auto-sterilize.
(§9) The susceptibility of yeast isolates was determined by broth microdilution in RPMI medium (HyClone Laboratories, Logan, UT; Lot No. AZC184041B) buffered with 0.165 M MOPS (Calbiochem, Billerica, MA; Lot No. 2694962). The pH of the medium was adjusted to 7.0 with 1 N NaOH, sterile filtered using a 0.2 μm PES filter, and stored at 4° C. until used.
(§10) Broth Microdilution MC Testing (Aerobic Bacteria and Yeast): The broth microdilution assay method employed for the susceptibility testing of aerobic bacteria (excluding N. gonorrhoeae which was evaluated by agar dilution) and yeast essentially followed the procedures described by CLSI (3, 4, 7, 8) and employed automated liquid handlers to conduct serial dilutions and liquid transfers. Automated liquid handlers included the Multidrop 384 (Labsystems, Helsinki, Finland) and Biomek 2000 (Beckman Coulter, Fullerton CA). The wells in columns 2-12 in standard 96-well microdilution plates (Costar 3795) were filled with 150 μl of the correct diluent. These would become the ‘mother plates’ from which ‘daughter’ or test plates would be prepared. The drugs (300 μL at 40× the desired top concentration in the test plates) were dispensed into the appropriate well in Column 1 of the mother plates. The Biomek 2000 was used to make serial two-fold dilutions through Column 11 in the “mother plate”. The wells of Column 12 contained no drug and ultimately served as the organism growth control wells.
as §4, with “The daughter plates were loaded with 185 μL per well of the appropriate test media using the Multidrop 384. The” for “The”
as §5
(§11) The Biomek 2000 delivered 10 μL of standardized inoculum into each well of the appropriate daughter plate for an additional 1:20 dilution. […] The final concentration of DMSO (if used as a solvent) in the test well was 2.5%.
as §7

[15] = tested on: C. glabrata; assay: Broth microdilution MIC, yeast (Example 5); type: cell-based; conditions: FLUR
Procedure: as §8, §9, §10
as §4, with “The daughter plates were loaded with 185 μL per well of the appropriate test media using the Multidrop 384. The” for “The”
as §5, §11, §7

[16] = tested on: C. parapsilosis; assay: Broth microdilution MIC, yeast (Example 5); type: cell-based
Procedure: as §8, §9, §10
as §4, with “The daughter plates were loaded with 185 μL per well of the appropriate test media using the Multidrop 384. The” for “The”
as §5, §11, §7

[17] = tested on: C. tropicalis; assay: Broth microdilution MIC, yeast (Example 5); type: cell-based; conditions: FLUR
Procedure: as §8, §9, §10
as §4, with “The daughter plates were loaded with 185 μL per well of the appropriate test media using the Multidrop 384. The” for “The”
as §5, §11, §7

[18] = tested on: C. parapsilosis; conditions: C. parapsilosis MMX 2323 (ATCC 22019), cited from earlier work

CCc1c(Cl)c(O)c(Cl)c(O)c1C(=O)O[C@H]1[C@H](O)[C@H](OC)[C@H](OC/C2=C\C=C\C[C@H](O)/C(C)=C/[C@H](CC)[C@@H](O[C@@H]3OC(C)(C)[C@@H](OC(=O)C(C)C)[C@H](O)[C@@H]3O)/C(C)=C/C(C)=C/C[C@@H]([C@@H](C)O)OC2=O)O[C@@H]1C [Fidaxomicin]
> 64 µg/mL: MIC [1]
0.5 µg/mL: MIC ([2]; C. difficile MMX 8272, ribotype 255, CCI) | MIC ([2]; C. difficile MMX 8279, ribotype 005, CCR) | MIC ([2]; C. difficile MMX 8281, ribotype 010, CCR) | MIC ([2]; NCTC13307, C. difficile MMX 5681 (NCTC 13307), ribotype 012, CCR)
0.25 µg/mL: MIC ([2]; ATCC700057, C. difficile MMX 4381 (ATCC 700057), QC, CCI)
4 µg/mL: MIC ([2]; NCTC13336, C. difficile MMX 5680 (NCTC 13336), ribotype 027, CCI METR)
(0.06-0.25) μg/mL: CLSI QC range of MIC [3]

Gentamicin [reference compound]
1 µg/mL: MIC ([4]; E. coli MMX 102 (ATCC 25922), QC) | MIC ([5]; K. pneumoniae MMX 4653, KPC-3) | MIC ([5]; K. pneumoniae MMX 4683, KPC-2) | MIC ([5]; K. pneumoniae MMX 4685, ESBL) | MIC ([7]; P. aeruginosa MMX 103 (ATCC 27853), QC)
64 µg/mL: MIC ([4]; E. coli MMX 8423, ESBL, LevR CAZR GmR) | MIC ([5]; K. pneumoniae MMX 4623, KPC-2)
0.5 µg/mL: MIC ([8]; A. baumannii MMX 3372, MDR)
8 µg/mL: MIC ([5]; K. pneumoniae MMX 4694, KPC-3) | MIC ([7]; P. aeruginosa MMX 1381, MDR) | MIC ([7]; P. aeruginosa MMX 2562, MDR) | MIC ([8]; A. baumannii MMX 4651 (NCTC 13304), MDR, OXA-27) | MIC ([10]; E. faecalis MMX 8961)
4 µg/mL: MIC ([7]; P. aeruginosa MMX 3991, MDR) | MIC ([7]; P. aeruginosa MMX 4697, VIM-2)
0.25 µg/mL: MIC ([4]; E. coli MMX 8424, ESBL, CAZR) | MIC ([5]; K. pneumoniae MMX 4622, KPC-2) | MIC ([5]; K. pneumoniae MMX 4684, ESBL) | MIC ([9]; S. aureus MMX 5373, MRSA) | MIC ([9]; S. aureus MMX 6311, MRSA) | MIC ([9]; S. aureus MMX 9204, MRSA) | MIC ([9]; S. aureus MMX 9205, MRSA)
(0.25-1) μg/mL: CLSI QC range of MIC [12]
(0.5-2) μg/mL: CLSI QC range of MIC [13]
0.12 µg/mL: MIC ([8]; A. baumannii MMX 3373, Sensitive) | MIC ([9]; S. aureus MMX 101 (ATCC 29213), QC, MSSA) | MIC ([9]; S. aureus MMX 9203, MRSA)
>64 µg/mL: MIC ([4]; E. coli MMX 5980 (ATCC BAA-2469), NDM-1) | MIC ([4]; E. coli MMX 8425, ESBL, LevR CAZR GmR) | MIC ([5]; K. pneumoniae MMX 5979, NDM-1) | MIC [6] | MIC ([7]; P. aeruginosa MMX 4654, IMP-7) | MIC ([8]; A. baumannii MMX 2592, MDR) | MIC ([8]; A. baumannii MMX 2593, MDR) | MIC ([10]; E. faecalis MMX 8960) | MIC ([10]; E. faecalis MMX 8962) | MIC ([11]; E. faecium MMX 485) | MIC ([11]; E. faecium MMX 752)

C[C@@H]1[C@H](O)[C@@H](C)/C=C/C=C/C=C/C=C/C=C/C=C/C=C/[C@H](O[C@@H]2O[C@H](C)[C@@H](O)[C@H](N)[C@@H]2O)C[C@@H]2O[C@](O)(C[C@@H](O)C[C@@H](O)[C@H](O)CC[C@@H](O)C[C@@H](O)CC(=O)O[C@H]1C)C[C@H](O)[C@H]2C(=O)O [Amphotericin B, reference compound]
0.25 µg/mL: MIC ([14]; C. albicans MMX 7055, 24 hr)
0.25 to 2 µg/mL: CLSI QC range of MIC ([18]; 24 hr)
0.5 µg/mL: MIC ([14]; C. albicans MMX 7055, 48 hr) | MIC ([15]; C. glabrata MMX 7086, 24 hr) | MIC ([15]; C. glabrata MMX 7318, 24 hr) | MIC ([16]; C. parapsilosis MMX 2323 (ATCC 22019), QC, 24 hr) | MIC ([16]; C. parapsilosis MMX 7370, FLUR, 24 hr) | MIC ([17]; C. tropicalis MMX 7247, 24 hr) | MIC ([17]; C. tropicalis MMX 7248, 24 hr)
1 µg/mL: MIC ([15]; C. glabrata MMX 7086, 48 hr) | MIC ([15]; C. glabrata MMX 7318, 48 hr) | MIC ([16]; C. parapsilosis MMX 2323 (ATCC 22019), QC, 48 hr) | MIC ([16]; C. parapsilosis MMX 7370, FLUR, 48 hr) | MIC ([17]; C. tropicalis MMX 7247, 48 hr) | MIC ([17]; C. tropicalis MMX 7248, 48 hr)
0.5 to 4 µg/mL: CLSI QC range of MIC ([18]; 48 hr)
0.5, 0.5 μg/mL: MIC ([14]; C. albicans MMX 7039, 24 hr) | MIC ([14]; C. albicans MMX 7039, 48 hr) | MIC ([16]; C. parapsilosis MMX 7555, FLUR, 24 hr) | MIC ([16]; C. parapsilosis MMX 7555, FLUR, 48 hr) | MIC ([17]; C. tropicalis MMX 7360, 24 hr) | MIC ([17]; C. tropicalis MMX 7360, 48 hr)

— patent US20240285571A1, “METHODS OF TREATING BONE INFECTIONS” (MICROBION CORPORATION, priority 2020, published 2024)
